According to patent publication US20230086702A1, “SUBSTITUTED 2-AMINO-PYRAZOLYL-[1,2,4]TRIAZOLO[1,5A]PYRIDINE DERIVATIVES AND USE THEREOF” (The Johns Hopkins University, priority 2019, published 2023):
pIC50: −log10 of the molar value.

Key:
DLK = target: T1, DLK (Homo sapiens, UniProt Q12852); test: DLK biochemical assay (TR-FRET, MKK7 phosphorylation); conditions: DLK catalytic domain, MKK7 substrate, 60 μM ATP
T1 construct: 10 nM DLK, catalytic domain, Carna Biosiences; purchased Carna Biosciences ('Carna Biosiences' [sic])
T1 sequence (Q12852 125-366 limits assumed): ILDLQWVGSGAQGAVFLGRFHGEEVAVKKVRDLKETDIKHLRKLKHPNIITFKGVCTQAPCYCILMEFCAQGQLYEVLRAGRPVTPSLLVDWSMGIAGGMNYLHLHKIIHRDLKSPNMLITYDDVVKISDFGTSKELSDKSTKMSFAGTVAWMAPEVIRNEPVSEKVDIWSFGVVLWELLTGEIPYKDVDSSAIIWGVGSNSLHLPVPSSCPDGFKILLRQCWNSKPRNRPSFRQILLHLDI
Outline: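 Human DLK activity measured as phosphorylation of His-tagged MKK7 at T275/S277, detected by TR-FRET between Eu-anti-phospho-MKK7 donor (excitation 340 nm) and XL665-anti-His acceptor (665 nm). Signal taken as the XL665/Eu ratio. Detection buffer: 25 mM Tris/HCl pH 7.5, 100 mM EDTA, 100 mM NaCl, 200 mM KF, 0.01% Tween 20.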

LZK = target: T2, LZK (Homo sapiens, UniProt O43283); test: LZK biochemical assay (TR-FRET, MKK7 phosphorylation); conditions: LZK catalytic domain, MKK7 substrate, 15 μM ATP
T2 construct: 10 nM LZK, catalytic domain, Carna Biosiences in assay buffer; purchased Carna Biosciences ('Carna Biosiences' [sic])
T2 sequence (O43283 168-409 limits assumed): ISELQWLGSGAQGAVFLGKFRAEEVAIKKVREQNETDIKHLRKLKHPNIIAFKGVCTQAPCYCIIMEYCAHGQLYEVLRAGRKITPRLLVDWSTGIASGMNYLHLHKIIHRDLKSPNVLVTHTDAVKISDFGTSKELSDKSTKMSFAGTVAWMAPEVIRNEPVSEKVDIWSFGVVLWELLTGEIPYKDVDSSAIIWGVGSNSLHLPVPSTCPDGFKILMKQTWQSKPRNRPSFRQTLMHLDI

CC[C@H](C)NC(=O)c1cc(-c2cnn(C(c3ccc(C(F)F)nc3)C3CC3)c2)cc2nc(N)nn12 (mixture of isomers) [Example I-98, 2-Amino-N-[(2S)-butan-2-yl]-7-(1-{cyclopropyl[6-(difluoromethyl)pyridin-3-yl]methyl}-1H-pyrazol-4-yl)[1,2,4]triazolo[1,5-a]pyridine-5-carboxamide]
pIC50 (DLK): 8.07 | pIC50 (LZK): 8.14

CC[C@H](C)NC(=O)c1cc(-c2cnn(C3CCCc4ccncc43)c2)cc2nc(N)nn12 (mixture of isomers) [Example I-21, 2-Amino-N-[(2S)-butan-2-yl]-7-[1-(5,6,7,8-tetrahydroisoquinolin-8-yl)-1H-pyrazol-4-yl][1,2,4]triazolo[1,5-a]pyridine-5-carboxamide]
pIC50 (DLK): 7.48 | pIC50 (LZK): 8.29

CC[C@H](C)NC(=O)c1cc(-c2cnn(C(c3ccnc(OC)c3)C(C)C)c2)cc2nc(N)nn12 (mixture of isomers) [Example I-126, 2-Amino-N-[(2S)-butan-2-yl]-7-{1-[1-(2-methoxypyridin-4-yl)-2-methylpropyl]-1H-pyrazol-4-yl}[1,2,4]triazolo[1,5-a]pyridine-5-carboxamide]
pIC50 (DLK): 9.70 | pIC50 (LZK): 8.89

CCC(c1ccc(C(F)F)nc1)n1cc(-c2cc(C(=O)N[C@@H](C)CC)c3nc(N)nn3c2)cn1 (mixture of isomers) [Example I-64, 2-Amino-N-[(2S)-butan-2-yl]-6-(1-{1-[6-(difluoromethyl)pyridin-3-yl]propyl}-1H-pyrazol-4-yl)[1,2,4]triazolo[1,5-a]pyridine-8-carboxamide]
pIC50 (DLK): 8.77 | pIC50 (LZK): 8.15

CCC(c1ccc(C(F)F)nc1)n1cc(-c2cc(C(=O)N[C@@H](C)CC)n3nc(N)nc3c2)cn1 (single isomer, unassigned) [Example I-93]
pIC50 (DLK): 8.19 | pIC50 (LZK): 8.20

CC[C@H](C)NC(=O)c1cc(-c2cnn([C@@H](CC)c3ccc(C(F)(F)F)nc3)c2)cc2nc(N)nn12 (single isomer, unassigned) [Example I-103]
pIC50 (DLK): 9.10 | pIC50 (LZK): 8.62

CC[C@@H](c1ccc(OC(F)(F)F)nc1)n1cc(-c2cc(C(=O)N[C@@H](C)CO)c3nc(N)nn3c2)cn1 (single isomer, unassigned) [Example I-158, 2-Amino-N-[(25)-1-hydroxypropan-2-yl]-6-(1-{1-[6-(trifluoromethoxy)pyridin-3-yl]propyl}-1H-pyrazol-4-yl)[1,2,4]triazolo[1,5-a]pyridine-8-carboxamide]
pIC50 (DLK): 9.22 | pIC50 (LZK): 8.47

CC[C@H](C)NC(=O)c1cc(-c2cnn(C(CC(F)(F)F)c3ccccc3)c2)cn2nc(N)nc12 (single isomer, unassigned) [Example I-39]
pIC50 (DLK): 7.62 | pIC50 (LZK): 6.64

CCC(c1cncc(Cl)c1)n1cc(-c2cc(C(=O)N[C@@H](C)CC)c3nc(N)nn3c2)cn1 (single isomer, unassigned) [Example I-59]
pIC50 (DLK): 7.70 | pIC50 (LZK): 7.24

Nc1nc2cc(-c3cnn(C(c4ccc(C(F)(F)F)nc4)C4CCOCC4)c3)cc(C(=O)N[C@H]3CCOC3)n2n1 (mixture of isomers) [Example I-183, 2-Amino-N-[(3S)-tetrahydrofuran-3-yl]-7-(1-{tetrahydro-2H-pyran-4-yl[6-(trifluoromethyl)pyridin-3-yl]methyl}-1H-pyrazol-4-yl)[1,2,4]triazolo[1,5-a]pyridine-5-carboxamide]
pIC50 (DLK): 8.77 | pIC50 (LZK): 8.22

CC[C@H](C)NC(=O)c1cc(-c2cnn(C(c3ccc(C(F)(F)F)nc3)C3CC3)c2)cc2nc(N)nn12 (mixture of isomers) [Example I-107, 2-Amino-N-[(2S)-butan-2-yl]-7-(1-{cyclopropyl[6-(trifluoromethyl)pyridin-3-yl]methyl}-1H-pyrazol-4-yl)[1,2,4]triazolo[1,5-a]pyridine-5-carboxamide]
pIC50 (DLK): 8.77 | pIC50 (LZK): 8.46

CC(CF)NC(=O)c1cc(-c2cnn(C3CCOc4ccccc43)c2)cn2nc(N)nc12 (mixture of isomers) [Example I-144, 2-Amino-6-{1-(3,4-dihydro-2H-1-benzopyran-4-yl)-1H-pyrazol-4-yl}-N-[1-fluoropropan-2-yl][1,2,4]triazolo[1,5-a]pyridine-8-carboxamide]
pIC50 (DLK): 7.08 | pIC50 (LZK): 7.10

CC[C@H](C)NC(=O)c1cc(-c2cnn(C(c3cncc(Cl)c3)C(C)C)c2)cn2nc(N)nc12 (single isomer, unassigned) [Example I-62]
pIC50 (DLK): 8.06 | pIC50 (LZK): 7.13

C[C@@H](CO)NC(=O)c1cc(-c2cnn([C@H](c3ccc(C(F)(F)F)nc3)C3CCOCC3)c2)cn2nc(N)nc12 (single isomer, unassigned) [Example I-155, 2-Amino-N-[(25)-1-hydroxypropan-2-yl]-6-(1-{tetrahydro-2H-pyran-4-yl[6-(trifluoromethyl)pyridin-3-yl]methyl}-1H-pyrazol-4-yl)[1,2,4]triazolo[1,5-a]pyridine-8-carboxamide]
pIC50 (DLK): 9.15 | pIC50 (LZK): 8.41

CC(CF)NC(=O)c1cc(-c2cnn(C(c3ccccc3)C(C)C)c2)cn2nc(N)nc12 (single isomer, unassigned) [Example I-142, 2-Amino-N-[1-fluoropropan-2-yl]-6-{1-[2-methyl-1-phenylpropyl]-1H-pyrazol-4-yl}[1,2,4]triazolo[1,5-a]pyridine-8-carboxamide]
pIC50 (DLK): 8.38 | pIC50 (LZK): 6.62

CC[C@H](C)NC(=O)c1cc(-c2cnn(C(c3ccccc3)C(C)C)c2)cc2nc(N)nn12 (mixture of isomers) [Example I-24, 2-Amino-N-[(2S)-butan-2-yl]-7-{1-[2-methyl-1-phenylpropyl]-1H-pyrazol-4-yl}[1,2,4]triazolo[1,5-a]pyridine-5-carboxamide]
pIC50 (DLK): 8.57 | pIC50 (LZK): 7.64

CC[C@H](C)NC(=O)c1cc(-c2cnn(C(c3ccccc3)C3(C)CC3)c2)cn2nc(N)nc12 (mixture of isomers) [Example I-28, 2-Amino-N-[(2S)-butan-2-yl]-6-{1[(1-methylcyclopropyl)(phenyl)methyl]-1H-pyrazol-4-yl}[1,2,4]triazolo[1,5-a]pyridine-8-carboxamide]
pIC50 (DLK): 8.04 | pIC50 (LZK): 6.42

CCC(c1ccc(OCC(F)(F)F)nc1)n1cc(-c2cc(C(=O)N[C@@H](C)CC)n3nc(N)nc3c2)cn1 (single isomer, unassigned) [Example I-115]
pIC50 (DLK): 8.38 | pIC50 (LZK): 7.70

CC[C@H](C)NC(=O)c1cc(-c2cnn(C(c3ccccc3)C(C)(C)C)c2)cn2nc(N)nc12 (mixture of isomers) [Example I-34, 2-Amino-N-[(2S)-butan-2-yl]-6-{1-[2,2-dimethyl-1-phenylpropyl]-1H-pyrazol-4-yl}[1,2,4]triazolo[1,5-a]pyridine-8-carboxamide]
pIC50 (DLK): 8.02 | pIC50 (LZK): 6.28

CC[C@H](C)NC(=O)c1cc(-c2cnn(C(c3ccc(OCC(F)(F)F)nc3)C3CC3)c2)cc2nc(N)nn12 (single isomer, unassigned) [Example I-120]
pIC50 (DLK): 7.36 | pIC50 (LZK): 6.85

CC[C@H](C)NC(=O)c1cc(-c2cnn(C(c3ccccc3)C3(C)CC3)c2)cn2nc(N)nc12 (single isomer, unassigned) [Example I-29]
pIC50 (DLK): 8.64 | pIC50 (LZK): 6.77

CC[C@H](C)NC(=O)c1cc(-c2cnn(C(c3ccc(C(F)F)nc3)C(C)C)c2)cc2nc(N)nn12 (single isomer, unassigned) [Example I-96]
pIC50 (DLK): 7.85 | pIC50 (LZK): 7.77

CC[C@H](C)NC(=O)c1cc(-c2cnn([C@H](c3ccc(C(F)(F)F)nc3)C(C)C)c2)cn2nc(N)nc12 (single isomer, unassigned) [Example I-75]
pIC50 (DLK): 8.96 | pIC50 (LZK): 8.62

Nc1nc2cc(-c3cnn(C(c4ccc(C(F)(F)F)nc4)C4CCOCC4)c3)cc(C(=O)N[C@H]3CCOC3)n2n1 (single isomer, unassigned) [Example I-185]
pIC50 (DLK): 9.10 | pIC50 (LZK): 8.64

CC[C@H](C)NC(=O)c1cc(-c2cnn(CC3CC3)c2)cn2nc(N)nc12 [Example I-1]
pIC50 (DLK): 7.01 | pIC50 (LZK): 7.08

CC[C@H](C)NC(=O)c1cc(-c2cnn(C(c3ccc(C(F)(F)F)nc3)C3CC3)c2)cc2nc(N)nn12 (single isomer, unassigned) [Example I-108]
pIC50 (DLK): 7.55 | pIC50 (LZK): 7.77

CC[C@H](C)NC(=O)c1cc(-c2cnn(C3CCc4ccccc43)c2)cn2nc(N)nc12 (single isomer, unassigned) [Example I-14]
pIC50 (DLK): 7.92 | pIC50 (LZK): 8.33

CC[C@H](C)NC(=O)c1cc(-c2cnn(C(c3ccnc(C(F)(F)F)c3)C(C)C)c2)cn2nc(N)nc12 (mixture of isomers) [Example I-91, 2-Amino-N-[(2S)-butan-2-yl]-6-(1-{2-methyl-1-[2-(trifluoromethyl)pyridin-4-yl]propyl}-1H-pyrazol-4-yl)[1,2,4]triazolo[1,5-a]pyridine-8-carboxamide]
pIC50 (DLK): 8.54 | pIC50 (LZK): 7.82
